Laboratory results from paper PMC10310036, “Variability in phenylalanine side chain conformations facilitates broad substrate tolerance of fatty acid binding in cockroach milk proteins” (PLOS ONE, 2023).
Read-outs that look alike come from different tables or passages of the source. Each block holds one compound with its values, some of them ahead of it.

How the values were obtained:
Test in all cases: intrinsic tryptophan fluorescence titration
Lili-Mip1 = biological target: T1, Lili-Mip1 (Diploptera punctata, UniProt Q6SVB6); type: binding
T1 construct: recombinant, codon-optimised synthetic gene, secreted from S. cerevisiae FGY217 with Ost1 or alpha-factor signal; untagged pYES2 version likely (also made with C-terminal His tag)
Text: intrinsic tryptophan fluorescence titration on Lili-Mip1

Lili-Mip2 = biological target: T2, Lili-Mip2 (Diploptera punctata, UniProt Q6SVB5); type: binding
T2 construct: recombinant, codon-optimised synthetic gene, secreted from S. cerevisiae FGY217 with Ost1 or alpha-factor signal; untagged pYES2 version likely (also made with C-terminal His tag)
Text: intrinsic tryptophan fluorescence titration on Lili-Mip2

Lili-Mip3 = biological target: T3, Lili-Mip3; type: binding, Diploptera punctata; conditions: 50 mM sodium acetate pH 4.8, 100 mM NaCl, 25°C, delipidated protein
T3 construct: recombinant, codon-optimised synthetic gene, secreted from S. cerevisiae FGY217 with Ost1 or alpha-factor signal; untagged pYES2 version likely (also made with C-terminal His tag)
Text: intrinsic tryptophan fluorescence titration on Lili-Mip3

[1] = read-out: Palmitoleic acid (16:1)
[2] = read-out: Myristoleic acid (14:1)

T2 sequence (Q6SVB5 entry or part of it): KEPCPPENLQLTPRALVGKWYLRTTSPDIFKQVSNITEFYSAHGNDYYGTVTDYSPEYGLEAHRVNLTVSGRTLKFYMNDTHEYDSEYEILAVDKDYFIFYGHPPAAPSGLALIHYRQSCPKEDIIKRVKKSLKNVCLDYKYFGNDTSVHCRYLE
T1 sequence (Q6SVB6 entry or part of it): as the sequence (Q6SVB5 entry or part of it) above, with E87K, I125V, S132A, H150P, R152H, L154V counted along it

Kd (Lili-Mip1; [1]): 1540 ± 910 nM | Kd (Lili-Mip2; [1]): 2300 ± 1320 nM | Kd (Lili-Mip3; [1]): 880 ± 620 nM
Compound: CCCCCC/C=C\CCCCCCCC(=O)O [Palmitoleic acid]

Kd (Lili-Mip1; read-out: Stearic acid (18:0)): 1710 ± 560 nM | Kd (Lili-Mip2; read-out: Stearic acid (18:0)): 2320 ± 1320 nM | Kd (Lili-Mip3; read-out: Stearic acid (18:0)): 1780 ± 1740 nM
Compound: CCCCCCCCCCCCCCCCCC(=O)O [Stearic acid]

Kd (Lili-Mip1; read-out: Palmitic acid (16:0)): 1760 ± 880 nM | Kd (Lili-Mip2; read-out: Palmitic acid (16:0)): 1410 ± 880 nM | Kd (Lili-Mip3; read-out: Palmitic acid (16:0)): 820 ± 610 nM
Compound: CCCCCCCCCCCCCCCC(=O)O [Palmitic acid]

Continued, compound first:

Compound: CCCCC/C=C\C/C=C\CCCCCCCC(=O)O [Linoleic acid]
Kd (Lili-Mip1; read-out: Linoleic acid (18:2)): 1560 ± 330 nM | Kd (Lili-Mip2; read-out: Linoleic acid (18:2)): 2190 ± 1410 nM | Kd (Lili-Mip3; read-out: Linoleic acid (18:2)): 270 ± 80 nM

Compound: CCCCCCCC/C=C\CCCCCCCC(=O)O [Oleic acid]
Kd (Lili-Mip1; read-out: Oleic acid (18:1)): 930 ± 310 nM | Kd (Lili-Mip2; read-out: Oleic acid (18:1)): 1710 ± 1190 nM | Kd (Lili-Mip3; read-out: Oleic acid (18:1)): 240 ± 110 nM

Compound: CCCCCCCCCCCCCC(=O)O [Myristic acid]
Kd (Lili-Mip1; read-out: Myristic acid (14:0)): 1960 ± 830 nM | Kd (Lili-Mip3; read-out: Myristic acid (14:0)): 1600 ± 510 nM

Compound: CCCC/C=C\CCCCCCCC(=O)O [Myristoleic acid]
Kd (Lili-Mip1; [2]): 2060 ± 420 nM | Kd (Lili-Mip2; [2]): 2780 ± 500 nM | Kd (Lili-Mip3; [2]): 680 ± 490 nM
